Tests used:
[1] = test system: UDP-glucose dehydrogenase; conditions: UDP-glucose dehydrogenase reaction; cited from earlier work
C57B16/J male mice [2] = assay: Dose-response of APAP toxicity (LD60) in mice; format: in vivo
Experimental: In prior experiments in the laboratory, the LD60, of APAP was determined to be about 600 mgs/kg. The molecular weight of APAP is 151; therefore, the LD60, was about 4 mMol/Kg.

C57B16/J male mice [3] = conditions: APAP 4 mMol/kg (600 mg/kg) IP plus 0.2 ml physiological saline; three of eight animals
[4] = cited from earlier work
[5] = cited from earlier work; remark: listed apart in the source

Row | SMILES | Km [1] [µM] | LD60 (C57B16/J male mice [2]; converted with molecular weight 151) | LD60 (C57B16/J male mice [2]; prior experiments in the laboratory) | survival at 24 hours, APAP/saline (control group) (C57B16/J male mice [3]) [%] | share of circulating acetaminophen undergoing Phase II glucuronide conjugation ([4]; adult, normal (non-saturated) conditions) | share of circulating acetaminophen undergoing Phase II sulfonate conjugation ([4]; adult) | share of circulating acetaminophen undergoing Phase I metabolism by cytochrome P-450 enzymes ([4]; normal conditions) | median half-life after an overdose ([5]; 112 patients, overdose) [h] | time of maximal blood concentrations after ingestion ([5]; human, oral) [min] | experimental half-life (t0.5 β) ([5]; human, single oral dose of 1-3 gms) [h] | volume of distribution ([5]; human) | share of a therapeutic dose biotransformed in the liver ([5]; therapeutic dose) [%] | share of the toxic dose excreted in the first 24 hours ([5]; toxic dose, first 24 hours)
1 | NC(=O)c1ccc[n+]([C@@H]2O[C@H](COP(=O)([O-])OP(=O)(O)OC[C@H]3O[C@@H](n4cnc5c(N)ncnc54)[C@H](O)[C@@H]3O)[C@@H](O)[C@H]2O)c1 [NAD^+, nicotinamide adenine dinucleotide] | 424 | – | – | – | – | – | – | – | – | – | – | – | –
2 | CC(=O)Nc1ccc(O)cc1 [APAP, N-acetyl-p-aminophenol] | – | about 4 mMol/Kg | about 600 mgs/kg | 37.5 | approximately 55% | approximately 30% | Five | 5.4 | 20 to 80 | 1.75 to 2.67 | approximately 0.95 L/Kg | 95 | over 90%
